Patent US20230357354A1, “CD38-BINDING CD31 PEPTIDES AND USES THEREOF” (ENCEFA, priority 2020, published 2023)
Where two headings read alike, the source gives them in different places. Bridge positions count the residues as written; N and C are the ends. Ends that are not written are not given here. Peptide text beside a SMILES is read from it.

Assays:
[1] = system: dopaminergic (TH^+) neurons in midbrain cultures; experiment: MPP+ intoxication model: DA (TH+) cell survival in midbrain cultures; format: cell-based, Wistar rat; conditions: MPP^+ in vitro model; antibodies 1 µg/mL, genistein 10 nM, vacuolin-1 10 µM, endosidin2 40 µM
Protocol: Animals were treated in accordance with the Guide for the Care and Use of Laboratory Animals (National Research Council, 1996), European Directive 86/609, and the guidelines of the local institutional animal care and use committee. Cultures were prepared from the ventral mesencephalon of gestational age 15.5 Wistar rat embryos (Janvier Breeding Center, Le Genest St Isle, France). Dissociated cells in suspension obtained by mechanical trituration of midbrain tissue pieces were seeded at a density of 1.2-1.5×10^5 cells/cm^2 onto tissue culture supports precoated with 1 mg/mL polyethylenimine diluted in borate buffer pH 8.3 as described (Michel et al., 1997. J Neurochem. 69(4):1499-507). The cultures were then maintained in N5 medium supplemented with 5 mM glucose, 5 % horse serum, and 0.5 % fetal calf serum, except for the first 3 DIV, when the concentration of fetal calf serum was 2.5% to favor initial maturation of the cultures (Guerreiro et al., 2008. Mol Pharmacol. 74(4):980-9). They were fed daily by replacing 70% of the medium. Routinely, mesencephalic cultures were established on Nunc 24-well culture plates (Thermofischer Scientific, Rochester, NY). Note that these cultures contain tyrosine hydroxylase (TH)^+ neurons that were exclusively dopaminergic (Traver et al., 2006. Mol Pharmacol. 70(1):30-40). TH^+ neurons represented approximately 1-2% of the total number of neuronal cells present in these cultures. The evaluation of the survival of DA neurons was performed by counting cells immunopositive for TH as described (Toulorge et al., 2011. Faseb J. 25(8):2563-73).
Treatments with MPP^+ were performed in cultures where the spontaneous death process was prevented by long-term exposure to depolarizing concentrations of K^+ (30 mM), in the presence of the glutamate receptor antagonist MK801 (5 µM) to prevent unwanted excitotoxic insults as described previously (Douhou et al., 2001. J Neurochem. 78(1):163-74). Treatments with MPP^+ and potential neuroprotective molecules were carried out between 5 and 7 DIV.
The cultures were fixed for 12 min using 4 % formaldehyde in Dulbecco’s phosphate-buffered saline (PBS), then washed twice with PBS before an incubation step at 4° C. for 24 hours with the following antibodies. A monoclonal anti-TH antibody diluted 1/5000 (ImmunoStar, Inc., Hudson, WI) was used to assess the survival of DA neurons. Antibody was diluted in PBS containing 0.2 % Triton X-100. Detection of the primary antibodies was performed with an Alexa Fluor-488 conjugate of an anti-mouse IgG antibody.
For this purpose, spontaneously occurring DA cell death was prevented by a treatment combining depolarizing concentrations of K^+ (30 mM) and MK801 (5 µM), a glutamate receptor antagonist used to prevent unwanted excitotoxic insult. The cultures were then exposed to 3 µM MPP^+ between 5 and 7 days in vitro (DIV) to achieve a loss of approximately 50% of DA neurons.

[2] = system: human Daudi cells; format: cell-based
[3] = system: DSS mouse model; experiment: DSS-induced colitis mouse model, colon length; format: in vivo, mice
Protocol: (§1) Experimental colitis was induced in mice by giving drinking water ad libitum containing 3 % (w/v) DSS for 5 days, while control mice received tap water only. Test compounds were intravenously administered (15 mg/kg) when DSS treatment began. Mice were sacrificed 9 days after the beginning of DSS treatment.
Administration of DSS causes human ulcerative colitis-like pathologies due to its toxicity to colonic epithelial cells, which results in compromised mucosal barrier function. Clinical observations similar to human pathologies, such as weight loss, diarrhea and occult blood in stool, are commonly observed in the DSS model. Moreover, diminution of the colon’s length is characteristic of this model.
as §1, with “3%” for “3 %”, “compounds (SEQ ID NO: 6 and SEQ ID NO: 10)” for “compounds”, “subcutaneously” for “intravenously”, “everyday (300 µg/kg) starting” for “(15 mg/kg)”

[4] = system: human Daudi cells; format: cell-based; conditions: glucose-deprived cells, 1 hour treatment (1 µM per figure legends; 10 µg/mL per method), 2-NBDG 500 µM 30 minutes
Protocol: Human Daudi cells cultured in 75 cm^2 flask were centrifuged ( 300 g, 3 minutes), resuspended in warmed PBS supplemented with 10 % goat serum and seeded in 96-well microplate ( 100 µL, 2 × 10^6 cells/mL) in order to deprive cells from glucose. Cells were treated with test treatments (10 µg/mL) for 1 hour (37° C.). Cells were then incubated with 500 µM of the fluorescent and non-metabolizable glucose analog 2-NBDG ((2R,3R,4S,5R)-3,4,5,6-tetrahydroxy-2-[(7-nitro-2,1,3-benzoxadiazol-4-yl)amino]hexanal; Thermo Fischer) for 30 minutes at 37° C., and washed 4 times with PBS containing 10 % of goat serum. Images were acquired using a Zeiss microscope (20 X) and the relative fluorescence intensity of 30 cells was determined using Fiji.
To determine the effect of test compounds on glucose uptake, we developed a cellular model based on the use of human Daudi cells, a cell line known to strongly express CD38.
Human Daudi cells were plated in culture medium deprived of glucose and exposed to test treatments (peptides of Table 6) for 1 hour and then incubated with the non-metabolizable, fluorescent glucose 2-NBDG. After 30 minutes of incubation, cells were washed and imaged using a microscope. Fluorescence levels were determined using Fiji.

[5] = system: 6-OHDA mouse model; experiment: 6-OHDA mouse model, number of DA (TH+) neurons in the substantia nigra pars compacta; format: in vivo, mice; conditions: 15 mg/kg iv one day before 6-OHDA icv injection
Protocol: Animals were treated in accordance with the Guide for the Care and Use of Laboratory Animals (National Research Council, 1996), with the European Directive 2010/63/EU, and the guidelines of the local institutional animal care and use committee. For all studies, 8 to 10 weeks-old male C57B1/6 mice (Janvier, France) were used. They were maintained on a 12:12 hours light/dark cycle with lights on at 8 a.m. The room temperature was kept at 20° C., with free access to standard diet and tap water.
Two in vivo mouse models were used: the 6-OHDA mouse model and the MPTP mouse model. For the 6-OHDA mouse model, the intoxication protocol was based on the unilateral stereotaxic intrastriatal injection of 6-OHDA in the right striatum. Intracerebral or intravenous injections of treatments were made either the day before the surgical stereotaxic procedure, concomitantly with 6-OHDA during the surgical stereotaxic procedure, or two days after 6-OHDA injection. Animals were sacrificed 8 days after the surgical stereotaxic procedure.
For unilateral 6-OHDA mouse model, animals were anesthetized using Chloral hydrate (400 mg/kg, i.p.) and placed into a stereotactic frame adapted to mice. The injection was performed using a Hamilton syringe at the following coordinates: AP: + […] (corresponding to the atlas of Franklin and Paxinos, 1997). […]

Compound: Ic1cccc(/C=N/Nc2nc(N3CCOCC3)nc(N(c3ccccc3)c3ccccc3)n2)c1 [vacuolin-1]
- effect on the neuroprotective effect of agonistic anti-CD38 antibody clone HB7 (1 µg/mL) [1]: antagonized
- effect on the neuroprotective effect of sCD31 (1 µg/mL) [1]: antagonized

Compound: NSRDQNFVILEFPVE [SEQ ID NO: 6]
- EC50 ([2]; 1 h): ~13 nM
- colon length ([3]; 300 µg/kg s.c. daily from start of DSS, 3% DSS 5 days, sacrifice day 9): statistically significant improvement in colon length
- potency on colon length compared with SEQ ID NO: 10 ([3]; same dosing regimen, 300 µg/kg s.c. daily): less potent than SEQ ID NO: 10

Compound: human sCD31: soluble form of human CD31, amino acid residues 35 to 493 of SEQ ID NO: 1
- EC50 ([2]; dose response, 2-NBDG fluorescence, read-out: EC50 on glucose uptake): ~5 nM
- glucose uptake (2-NBDG fluorescence) [4]: increased glucose uptake to similar levels to that observed in the presence of insulin

Compound: COc1cc(/C=N/NC(=O)c2cccc(F)c2)cc(I)c1O [endosidin2]
- effect on the neuroprotective effect of agonistic anti-CD38 antibody clone HB7 (1 µg/mL) [1]: antagonized
- effect on the neuroprotective effect of sCD31 (1 µg/mL) [1]: antagonized

Compound: O=c1c(-c2ccc(O)cc2)coc2cc(O)cc(O)c12 [genistein]
- effect on the neuroprotective effect of agonistic anti-CD38 antibody clone HB7 (1 µg/mL) [1]: antagonized
- effect on the neuroprotective effect of sCD31 (1 µg/mL) [1]: antagonized

Compound: Daratumumab
- neuroprotective effect on DA neurons [5]: failed to demonstrate neuroprotective activity

Compound: CC[C@H](C)[C@@H]1NC(=O)[C@H](C(C)C)NC(=O)[C@H](Cc2ccccc2)NC(=O)[C@H](CC(N)=O)NC(=O)[C@H](CCC(N)=O)NC(=O)[C@H](CC(=O)O)NC(=O)[C@H](CCCNC(=N)N)NC(=O)[C@@H](N)CSSC[C@@H](C(=O)O)NC(=O)[C@H](CCC(N)=O)NC(=O)[C@H](CCC(=O)O)NC(=O)[C@H](CCC(=O)O)NC(=O)[C@H](C(C)C)NC(=O)[C@@H]2CCCN2C(=O)[C@H](Cc2ccccc2)NC(=O)[C@H](CCC(=O)O)NC(=O)[C@H](CC(C)C)NC1=O [SEQ ID NO: 9] (H-CRDQNFVILEFPVEEQC-OH; disulfide 1-17 (inferred); N-terminus and C-terminus assumed)
- EC50 ([2]; 1 h): ~0.1 nM
